Results reported in US20250129122A1, “PEPTIDE, AND CELL FUSION AGENT AND PHARMACEUTICAL COMPOSITION FOR CANCER THERAPY CONTAINING SAID PEPTIDE” (priority 2021, published 2025).

Legend:
RFL cells = assay: Apoptosis induction, Caspase-3/7 activity (IncuCyte S3 live cell analysis); assay type: cell-based, rat; conditions: 0.06 μg/mL, scanned every hour for 3 days, untreated control did not increase
Protocol: (§1) In this Example, the apoptosis ability of peptide 16 was examined using the […] and RM4 cells. An activity of Caspase-3/7 which are indications of apoptosis, was measured using IncuCyte S3 live cell analysis system (Essen BioScience).
(§2) The activity of Caspase-3/7 activity is measured using an inert non-fluorescent (DEVD) substrate that can penetrate the cell membrane. An activated Caspase-3/7 cleaves the substrate, and thereby a DNA-bound green fluorescent label is released. The activity of Caspase-3/7 is measured by the intensity of green fluorescence.
(§3) RFL cells or RM4 cells were seeded on 96-well plates and 0.06 μg/mL of peptide 16 was added thereto. Caspase-3/7 Green Reagent (Unit size: 20 ul, 5 mM/vial) was diluted 500-fold with Ham's F-12K and added thereto.
(§4) They were measured using the IncuCyte S3 live cell analysis system, by continuously scanning every hour for 3 days with an objective lens of magnification of 10 times and 4 fields of view. As a control, RFL cells or RM-4 cells which were not treated with peptide 16, were used.

RM4 cells = assay: as above; assay type: cell-based; conditions: 0.06 μg/mL, scanned every hour for 3 days, untreated control did not increase
Protocol: as §1, §2, §3, §4

HVJ virus (Sendai virus) = assay: Virus envelope fusion, electron micrograph
Source text: In this example, peptide 16 was applied to the HVJ virus (Sendai virus), and its ability to fuse with the virus was examined.

[1] = tested on: A549 cells (human alveolar epithelial adenocarcinoma cells); assay: In vivo anticancer effect on A549 tumor transplanted in nude mice; design: species or system mouse; conditions: A549 subcutaneous, 18.75 mg/kg or 37.5 mg/kg intravenously two times/week during 5 weeks, autopsy 35 days after implantation
Protocol: In this example, the anticancer effect of peptide 16 on A549 cells (human alveolar epithelial adenocarcinoma cells) was examined in vivo.
CAnN.Cg-Foxn1nu/CrlCrlj nude mice were divided into groups of 6 animals each. A549 cells were suspended in PBS at a concentration of 1×10^8 cells/mL and 0.1 mL thereof were transplanted subcutaneously to the right ventral part thereof. The peptide 16 was administered intravenously from the tail vein at a dose of 18.75 mg/kg or 37.5 mg/kg (peptide 16 group-1, or peptide 16 group-2) on two times/week during 5 weeks after tumor transplantation. Control group was administered PBS only.
Autopsy was performed 35 days after tumor implantation, and the tumor was removed. FIGS. 13A (×100) and B (×400) are the photographs of tumor masses of A549 cells treated with peptide 16, and FIGS. 13C (×100) and D (×400) are the controls.

Substance: CH3-Pro-Ile-Val-Ser-Thr-Gln-Thr-Ala-Leu-Ala-miniPEG-D-Lys-D-Lys-D-Lys-NH2 [peptide 16]
- activity of Caspase-3/7 (RFL cells): the activity increased rapidly between 10 and 20 hours
- activity of Caspase-3/7 (RM4 cells): the activity increased rapidly between 10 and 20 hours
- fusion of the virus envelope (HVJ virus (Sendai virus)): Fusion of the envelope of the HVJ virus was observed
- antitumor effect, HE-stained excised tumor [1]: the inside of the tumor is necrotic
